Assay: Stability test of the reference solution of the compound of formula I (HPLC peak area)
Type: physicochemical
Details: reference solution in 50% aqueous methanol (25 mg in 25 ml); injected at 0, 2, 4, 8, 12, 24 h after preparation, 20 μl each; within 24 hours

SMILES: Cc1cncc(C[N+]2(C)CCC(=C3c4ccccc4CC(=O)c4sccc43)CC2)c1.[Br-] (stereo not shown) [式Ⅰ所示化合物]
- stability (peak area by HPLC): 稳定
